This note sets out measurements from patent US12570666B2, “Furoindazole derivatives” (Bayer Aktiengesellschaft, priority 2019, dated 2026).

A word on the IC50: it is the concentration that gives 50% inhibition.

The test concerns the target T1, human GPR84 receptor (Homo sapiens, UniProt Q9NQS5).
T1 construct: frozen aliquots prepared by acCELLerate; host or cells: CHO-K1
Kind of test: cAMP HTRF assay for identification of cellular GPR84 antagonists. Type of test: cell-based. The note with it: CHO-K1 cells stably expressing human GPR84; Forskolin + agonist 6-OAU (EC80); average or median values. From the text:
cAMP HTRF® Assay for Identification of Cellular GPR84 Antagonists
By using a Homogenous Time-Resolved Fluorescence (HTRF®) based assay (#62AM5PEJ, Cisbio, Condolet, France) the inhibition of the Gi-coupled GPR84 receptor can be detected. CHO-K1 cells stably expressing human GPR84 receptor (purchased from DiscoveRx, now Eurofins) were used and treated with Forskolin (F6886, Sigma, Germany) to stimulate membrane adenylyl cyclases and thereby unspecific cAMP formation. Activation of the Gi-coupled GPR84 by a natural or small molecule agonist (e.g. 6-n-octyl aminouracile, inhouse) results in inhibition of cellular cAMP formation which can be released again by antagonists to this receptor. Detection and quantification of cellular cAMP levels in this HTRF assay is achieved by interaction between a fluorescent cAMP tracer (cAMP-d2) and an Eu-cryptate labelled anti-cAMP antibody. Following excitation at 337 nm this pairing allows for the generation of a fluorescence resonance energy transfer (FRET) between the partners and results in FRET induced emissions at 665 nm and 620 nm, the latter representing background signal by Eu-cryptate labelled anti-cAMP antibody. Maximal signal is obtained in the absence of any cellular cAMP (no competition for the binding of the tracer to the antibody). Given the combination of the Gi coupling properties of GPR84 and the competitive nature of the detection system agonist treatment should result in an increase in the HTRF signal due to lowered cAMP levels. Any signal decrease in the presence of Forskolin, agonist and compound is indicative of antagonist mediated abrogation of GPR84 signalling.
For the assay, frozen aliquots of CHO-K1 cells expressing hGPR84 (prepared by acCELLerate, Hamburg, Germany) were thawed and a cell suspension (1.67E+06 cells/mL) in assay media (Ham's F12 Nutrient Mix, Thermo Fisher Scientific, Waltham, USA; 5% fetal calf serum, Biomol, Hamburg, Germany) containing cAMP-d2 (dilution 1:20, supplied with the kit #62AM5PEJ, Cisbio, Condolet, France) was prepared. After recovery of cells for 20 minutes at 37° C., 3 μL/well cell suspension including cAMP-d2 were added to a pre-dispensed assay plate (Greiner Bio-One, Kremsmuenster, Austria) containing 50 nl/well test compound in 100% DMSO or 100% DMSO as control. This was followed by a 30 minutes incubation step at room temperature. […] The reaction was stopped by addition of 3 μL/well lysis buffer containing cAMP Eu-Cryptate antibody (dilution 1:20) (both supplied with the kit #62AM5PEJ, Cisbio, Condolet, France). To enable complete lysis, plates were incubated for 60 minutes at room temperature before measurement in an HTRF reader, e.g. a PHERAstar (BMG Labtech, Ortenberg, Germany).
From the fluorescence emissions at 665 nm (FRET) and at 620 nm (background signal of Eu-cryptate) the ratio (emission at 665 nm divided by emission at 620 nm×10000) was calculated and the data were normalized (reaction without test compound, only 100% DMSO=0% inhibition; all other assay components except agonist=100% inhibition). For dose response testing on the same microtiter plate, compounds were tested at 11 different concentrations in the range of 20 μM to 0.07 nM (20 μM, 5.7 μM, 1.6 μM, 0.47 μM, 0.13 μM, 38 nM, 11 nM, 3.1 nM, 0.89 nM, 0.25 and 0.07 nM; dilution series prepared before the assay at the level of the 100-fold conc. stock solutions by serial 1:3.5 dilutions in 100% DMSO) in duplicate values for each concentration. IC50 values were calculated by 4-parameter fitting using a commercial software package (Genedata Screener, Basel, Switzerland).
Examples were tested in selected biological assays one or more times. […]
In general terms: Time-resolved FRET reads energy transfer from a long-lived donor to a nearby acceptor.

T1 sequence (Q9NQS5 whole entry): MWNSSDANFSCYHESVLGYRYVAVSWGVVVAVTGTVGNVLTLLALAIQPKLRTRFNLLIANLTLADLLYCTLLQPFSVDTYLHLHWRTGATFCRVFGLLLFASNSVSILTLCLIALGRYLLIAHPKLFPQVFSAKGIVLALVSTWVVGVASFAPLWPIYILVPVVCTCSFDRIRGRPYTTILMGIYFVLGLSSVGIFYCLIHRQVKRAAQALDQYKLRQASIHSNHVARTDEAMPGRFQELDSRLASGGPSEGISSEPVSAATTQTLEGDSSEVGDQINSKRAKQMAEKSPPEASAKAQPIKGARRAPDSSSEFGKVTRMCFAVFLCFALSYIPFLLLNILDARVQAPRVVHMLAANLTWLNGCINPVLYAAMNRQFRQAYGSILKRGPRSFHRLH

As for `Cc1c(C(=O)NC[C@@H]2COCCO2)oc2c1-c1nn(CCN)cc1CC2` [Example 161, 2-(2-aminoethyl)-N-[(2R)-1,4-dioxan-2-ylmethyl]-8-methyl-4,5-dihydro-2H-furo[2,3-g]indazole-7-carboxamide], the IC50 is 6520 nM. With `CCOc1cnc(Cn2cc3c(n2)-c2c(oc(C(=O)NC[C@@H]4CCCO4)c2C)CC3)c(Cl)c1` [Example 59, 2-[(3-chloro-5-ethoxypyridin-2-yl)methyl]-8-methyl-N-[(2S)-tetrahydrofuran-2-ylmethyl]-4,5-dihydro-2H-furo[2,3-g]indazole-7-carboxamide], the IC50 was found to be 70 nM.

For `Cc1c(C(=O)NC[C@@H]2COCCO2)oc2c1-c1nn(C[C@H]3CCOC3)cc1CC2` [Example 112, N-[(2R)-1,4-dioxan-2-ylmethyl]-8-methyl-2-[(3R)-tetrahydrofuran-3-ylmethyl]-4,5-dihydro-2H-furo[2,3-g]indazole-7-carboxamide], the concentration for half-maximal inhibition (IC50) came to 320 nM. On to `Cc1c(C(=O)NC[C@@H]2CCCO2)oc2c1-c1nn(C[C@H]3CCOC3)cc1CC2` [Example 111, 8-methyl-N-[(2S)-tetrahydrofuran-2-ylmethyl]-2-[(3R)-tetrahydrofuran-3-ylmethyl]-4,5-dihydro-2H-furo[2,3-g]indazole-7-carboxamide], for which the concentration for half-maximal inhibition (IC50) is 140 nM. With `Cc1c(C(=O)NC[C@@H]2COCCO2)oc2c1-c1nn(C[C@H]3CCO3)cc1CC2` [Example 98, N-[(2R)-1,4-dioxan-2-ylmethyl]-8-methyl-2-[(2R)-oxetan-2-ylmethyl]-4,5-dihydro-2H-furo[2,3-g]indazole-7-carboxamide], the concentration for half-maximal inhibition (IC50) was 470 nM. To `Cc1c(C(=O)NCc2ccn(C)n2)oc2c1-c1nn(Cc3ccccn3)cc1C1(CC1)C2` [Example 123, 8′-methyl-N-[(1-methyl-1H-pyrazol-3-yl)methyl]-2′-(pyridin-2-ylmethyl)-2′,5′-dihydrospiro[cyclopropane-1,4′-furo[2,3-g]indazole]-7′-carboxamide] belongs 120 nM; to `Cc1c(C(=O)NC[C@@H]2CCCO2)oc2c1-c1nn(CCNC(=O)OC(C)(C)C)cc1CC2` [Example 139, tert-butyl [2-(8-methyl-7-{[(2S)-tetrahydrofuran-2-ylmethyl]carbamoyl}-4,5-dihydro-2H-furo[2,3-g]indazol-2-yl)ethyl]carbamate], 80 nM; to `Cc1c(C(=O)NCC2CCC(C)(C)O2)oc2c1-c1nn(Cc3ccccn3)cc1CC2` (racemic) [Example 170], 30 nM. Next, `Cc1c(C(=O)NCC2CCO2)oc2c1-c1nn(Cc3ccccn3)cc1CC2` (single isomer, unassigned) [Example 35-1]: 180 nM; `CC(=O)N1CCC(Cn2cc3c(n2)-c2c(oc(C(=O)NC[C@@H]4COCCO4)c2C(F)(F)F)C[C@H]3C)CC1` (single isomer, unassigned) [Example 294, (4R or 4S)-2-[(1-acetylpiperidin-4-yl)methyl]-N-{[(2R)-1,4-dioxan-2-yl]methyl}-4-methyl-8-(trifluoromethyl)-4,5-dihydro-2H-furo[2,3-g]indazole-7-carboxamide]: 8 nM; `Cc1c(C(=O)NCCN2CC(C)(C)C2=O)oc2c1-c1nn(Cc3ccccn3)cc1CC2` [Example 28, N-[2-(3,3-dimethyl-2-oxoazetidin-1-yl)ethyl]-8-methyl-2-(pyridin-2-ylmethyl)-4,5-dihydro-2H-furo[2,3-g]indazole-7-carboxamide]: 4570 nM. As for `Cc1c(C(=O)NC[C@H]2CCCO2)oc2c1-c1nn(C[C@@H]3COc4ncccc4O3)cc1CC2` (racemic) [Example 51, 2-[(2R/S)-2,3-dihydro[1,4]dioxino[2,3-b]pyridin-2-ylmethyl]-8-methyl-N-[(2R/S)-tetrahydrofuran-2-ylmethyl]-4,5-dihydro-2H-furo[2,3-g]indazole-7-carboxamide], the half-inhibitory concentration (IC50) is 56 nM. Consider `Cc1c(C(=O)NCC2CC(C)CO2)oc2c1-c1nn(C[C@H]3COCCO3)cc1C1(CC1)C2` (mixture of isomers) [Example 199], for which the IC50 stood at 79 nM. To `Cc1c(C(=O)NC[C@@H]2CCCO2)oc2c1-c1nn(C[C@H]3COCCO3)cc1C(C(F)(F)F)C2` (mixture of isomers) [Example 266, (4±)-2-{[(2S)-1,4-dioxan-2-yl]methyl}-8-methyl-N-{[(2S)-oxolan-2-yl]methyl}-4-(trifluoromethyl)-4,5-dihydro-2H-furo[2,3-g]indazole-7-carboxamide] belongs 607 nM; to `C[C@@H]1Cc2oc(C(=O)NC[C@@H]3COCCO3)c(C(F)(F)F)c2-c2nn(CC3CCN(C(=O)C4(C)CC4)CC3)cc21` (single isomer, unassigned) [Example 299, (4R or 4S)-N-{[(2R)-1,4-dioxan-2-yl]methyl}-4-methyl-2-{[1-(1-methylcyclopropane-1-carbonyl)piperidin-4-yl]methyl}-8-(trifluoromethyl)-4,5-dihydro-2H-furo[2,3-g]indazole-7-carboxamide], 24 nM; to `Cc1c(C(=O)NCC2CCC(C)(C)O2)oc2c1-c1nn(C[C@H]3COCCO3)cc1C1(CC1)C2` (mixture of isomers) [Example 195], 29 nM. On to `CCC(=O)C(=O)N1CCC(Cn2cc3c(n2)-c2c(oc(C(=O)NC[C@@H]4CCCO4)c2C(F)(F)F)C[C@H]3C)CC1` (single isomer, unassigned) [Example 297, (4R or 4S)-4-methyl-2-{[1-(2-oxobutanoyl)piperidin-4-yl]methyl}-N-{[(2S)-oxolan-2-yl]methyl}-8-(trifluoromethyl)-4,5-dihydro-2H-furo[2,3-g]indazole-7-carboxamide], for which the IC50 was 13 nM. With `Cc1c(C(=O)NC[C@@H]2CCCO2)oc2c1-c1nn(Cc3ncccn3)cc1CC2` [Example 83, 8-methyl-2-(pyrimidin-2-ylmethyl)-N-[(2S)-tetrahydrofuran-2-ylmethyl]-4,5-dihydro-2H-furo[2,3-g]indazole-7-carboxamide], the IC50 is 180 nM. Turning to `Cc1c(C(=O)NC[C@@H]2COCCO2)oc2c1-c1nn(C[C@H]3COCCO3)cc1CC2` [Example 90, N-[(2R)-1,4-dioxan-2-ylmethyl]-2-[(2S)-1,4-dioxan-2-ylmethyl]-8-methyl-4,5-dihydro-2H-furo[2,3-g]indazole-7-carboxamide], the half-maximal inhibitory concentration (IC50) was determined as 47 nM.

On to `CC(=O)N1CC(Cn2cc3c(n2)-c2c(oc(C(=O)NC[C@@H]4CCCO4)c2C)CC3)C1` [Example 164, 2-[(1-acetylazetidin-3-yl)methyl]-8-methyl-N-[(2S)-tetrahydrofuran-2-ylmethyl]-4,5-dihydro-2H-furo[2,3-g]indazole-7-carboxamide], for which the IC50 was 980 nM. To `Cc1c(C(=O)NCC2CCC3(COC3)O2)oc2c1-c1nn(Cc3ccccn3)cc1CC2` (racemic) [Example 180] belongs 210 nM; to `Cc1c(C(=O)NCc2cnoc2C2CC2)oc2c1-c1nn(Cc3ccccn3)cc1CC2` [Example 16, N-[(5-cyclopropyl-1,2-oxazol-4-yl)methyl]-8-methyl-2-(pyridin-2-ylmethyl)-4,5-dihydro-2H-furo[2,3-g]indazole-7-carboxamide], 11200 nM.

Take `Cc1c(C(=O)NC[C@@H]2COCCO2)oc2c1-c1nn(Cc3ccncc3)cc1CC2` [Example 47, N-[(2R)-1,4-dioxan-2-ylmethyl]-8-methyl-2-(pyridin-4-ylmethyl)-4,5-dihydro-2H-furo[2,3-g]indazole-7-carboxamide]: the half-maximal inhibitory concentration (IC50) was 19 nM.
